From the CheMixHub ionic liquid set

Assay: xn = mol fraction of the nth substance listed

CCCCCCCCCCCCCCCC[n+]1ccccc1.O=C([O-])c1ccccc1O + CC(C)[C@H](N)C(=O)O + O
electrical conductivity [S/m], 101 kPa
Conditions	293.15 K	298.15 K	303.15 K	308.15 K	313.15 K
x2 = 0.0009002, x1 = 3.6e-07	0.000683	0.000771	0.000864	0.000967	0.00108
x2 = 0.0009002, x1 = 7.2e-07	0.000869	0.000983	0.0011	0.00123	0.00136
x2 = 0.0009002, x1 = 1.27e-06	0.00105	0.00118	0.00133	0.00148	0.00164
x2 = 0.0009002, x1 = 1.63e-06	0.00122	0.00138	0.00155	0.00173	0.00192
x2 = 0.0009002, x1 = 1.99e-06	0.00138	0.00156	0.00175	0.00194	0.00215
x2 = 0.0009002, x1 = 2.35e-06	0.00152	0.00174	0.00196	0.00219	0.00243
x2 = 0.0009002, x1 = 2.9e-06	0.00168	0.00193	0.00219	0.00247	0.00274
x2 = 0.0009002, x1 = 3.44e-06	0.00182	0.00207	0.00235	0.00266	0.003
x2 = 0.0009002, x1 = 3.98e-06	0.00195	0.00223	0.00254	0.00287	0.00322
x2 = 0.0009002, x1 = 4.53e-06	0.00208	0.00236	0.00269	0.00303	0.00342
x2 = 0.0009002, x1 = 4.89e-06	–	–	–	0.0032	0.00359
x2 = 0.0009002, x1 = 5.07e-06	0.00218	0.00249	0.00283	–	–
x2 = 0.0009002, x1 = 5.43e-06	0.00228	0.0026	0.00295	0.00334	0.00376
x2 = 0.0009002, x1 = 5.79e-06	0.00238	0.00271	0.00307	0.00346	0.00389
x2 = 0.0009002, x1 = 6.16e-06	0.00246	0.0028	0.00317	0.00358	0.00403
x2 = 0.001799, x1 = 1.8e-07	0.00108	0.00122	0.00138	0.00154	0.00173
x2 = 0.001799, x1 = 3.6e-07	0.00119	0.00135	0.00152	0.00169	0.00189
x2 = 0.001799, x1 = 7.3e-07	0.00132	0.00149	0.00168	0.00188	0.00209
x2 = 0.001799, x1 = 1.09e-06	0.00145	0.00164	0.00185	0.00206	0.0023
x2 = 0.001799, x1 = 1.27e-06	0.00157	0.00178	0.00199	0.00222	0.00248
x2 = 0.001799, x1 = 1.46e-06	0.00171	0.00193	0.00216	0.00242	0.00269
x2 = 0.001799, x1 = 1.64e-06	0.00177	0.002	0.00225	0.00252	0.0028
x2 = 0.001799, x1 = 1.82e-06	0.00183	0.00207	0.00233	0.0026	0.0029
x2 = 0.001799, x1 = 2e-06	0.00188	0.00213	0.0024	0.00268	0.00299
x2 = 0.001799, x1 = 2.18e-06	0.00196	0.00224	0.00252	0.00282	0.00314
x2 = 0.001799, x1 = 2.37e-06	–	0.00234	0.00267	0.00298	0.00332
x2 = 0.001799, x1 = 2.55e-06	0.00205	–	–	–	–
x2 = 0.001799, x1 = 2.73e-06	0.00216	0.00248	–	0.00317	0.00355
x2 = 0.001799, x1 = 3.09e-06	0.00226	0.00258	0.00292	0.0033	0.0037
x2 = 0.001799, x1 = 3.46e-06	0.00234	0.00268	0.00304	0.00342	0.00384

CCCCCCCCn1cc[n+](C)c1.O=[N+]([O-])[O-] + CCCO
101 kPa
Conditions	viscosity [mPa·s]
288.15 K, x2 = 0.258	356
288.15 K, x2 = 0.556	52
293.15 K, x2 = 0.47	75.4
293.15 K, x2 = 0.556	42.1
293.15 K, x2 = 0.671	19.89
298.15 K, x2 = 0.866	5.08
303.15 K, x2 = 0.258	147
303.15 K, x2 = 0.364	78.7
308.15 K, x2 = 0.556	24.01
313.15 K, x2 = 0.47	32.9
313.15 K, x2 = 0.671	10.83
318.15 K, x2 = 0.258	65.9
318.15 K, x2 = 0.671	9.5
328.15 K, x2 = 0.556	11.56

CCCCCCCCCCCCCC[P+](CCCCCC)(CCCCCC)CCCCCC.O=S(=O)([N-]S(=O)(=O)C(F)(F)F)C(F)(F)F + CCC[N+]1(C)CCCC1.O=S(=O)([N-]S(=O)(=O)C(F)(F)F)C(F)(F)F
Conditions	electrical conductivity [S/m]
293.15 K, 101 kPa, x1 = 1	0.00719

[Cl-].[Cl-].[Co+2] + CCCCCCCCCCCCCC[P+](CCCCCC)(CCCCCC)CCCCCC.[Cl-] + CCCCCCCC(=O)O
Conditions	viscosity [mPa·s]
296.1 K, 101.3 kPa, x2 = 0.4, x1 = 0.2	8500

CCCC[n+]1ccn(C)c1.O=S(=O)([O-])C(F)(F)F + CCCCO
viscosity [mPa·s], 100 kPa
Conditions	x1 = 0.1091	x1 = 0.2147	x1 = 0.2908	x1 = 0.4008	x1 = 0.5123	x1 = 0.5928	x1 = 0.6991	x1 = 0.8056	x1 = 0.9078	x1 = 1
298.15 K	3.69	6.2	8.9	14.2	20.6	26	35.4	47.6	63	82
303.15 K	3.24	5.1	6.9	11.5	17.5	22.6	30.2	38.8	51	67
308.15 K	2.87	4.45	6	11	15.3	19.3	25.4	32	40.6	53
313.15 K	2.55	3.93	5.3	9.5	13.6	16.9	21.6	27.2	34.7	43.7
318.15 K	2.27	3.48	4.68	7.9	11.2	13.8	17.8	22.6	28.5	36.3
323.15 K	2.04	3.11	4.17	7.2	10.1	12.4	15.8	19.3	24.4	30.6

O=C([O-])CC(O)(CC(=O)[O-])C(=O)[O-].[Na+].[Na+].[Na+] + CCCCCCCCCCCC[N+](C)(C)C.[Br-] + O
298.15 K, 101 kPa
Conditions	electrical conductivity [S/m]
x1 = 0.0001801, x2 = 6.99e-05	0.2684
x1 = 0.0001801, x2 = 7.929e-05	0.2719
x1 = 0.0001801, x2 = 8.85e-05	0.2754
x1 = 0.0001801, x2 = 9.753e-05	0.2789
x1 = 0.0001801, x2 = 0.0001069	0.2823
x1 = 0.0001801, x2 = 0.0001161	0.2857
x1 = 0.0001801, x2 = 0.0001253	0.2892
x1 = 0.0001801, x2 = 0.0001344	0.2925
x1 = 0.0001801, x2 = 0.0001434	0.2957
x1 = 0.0001801, x2 = 0.0001524	0.2987
x1 = 0.0001801, x2 = 0.0001611	0.3009
x1 = 0.0001801, x2 = 0.0001696	0.3029
x1 = 0.0001801, x2 = 0.0001784	0.3047
x1 = 0.0001801, x2 = 0.0001916	0.3068
x1 = 0.0001801, x2 = 0.0002048	0.3082
x1 = 0.0001801, x2 = 0.0002178	0.3097
x1 = 0.0001801, x2 = 0.0002306	0.311
x1 = 0.0001801, x2 = 0.0002434	0.3121
x1 = 0.0001801, x2 = 0.0002561	0.3132
x1 = 0.0001801, x2 = 0.0002685	0.3143
x1 = 0.0001801, x2 = 0.000281	0.3154
x1 = 0.0001801, x2 = 0.0002933	0.3165
x1 = 0.0001801, x2 = 0.0003055	0.3176
x1 = 0.0001802, x2 = 0	0.2438
x1 = 0.0001802, x2 = 3.07e-06	0.2445
x1 = 0.0001802, x2 = 6.32e-06	0.2456
x1 = 0.0001802, x2 = 1.391e-05	0.2483
x1 = 0.0001802, x2 = 2.348e-05	0.2516
x1 = 0.0001802, x2 = 3.251e-05	0.2548
x1 = 0.0001802, x2 = 4.154e-05	0.258
x1 = 0.0001802, x2 = 5.076e-05	0.2614
x1 = 0.0001802, x2 = 6.015e-05	0.2648
x1 = 0.001798, x2 = 0.000148	1.558
x1 = 0.001798, x2 = 0.0001666	1.562
x1 = 0.001798, x2 = 0.0001847	1.565
x1 = 0.001798, x2 = 0.0002029	1.569
x1 = 0.001798, x2 = 0.0002206	1.573
x1 = 0.001798, x2 = 0.0002383	1.576
x1 = 0.001798, x2 = 0.0002559	1.579
x1 = 0.001798, x2 = 0.000273	1.582
x1 = 0.001798, x2 = 0.0002898	1.585
x1 = 0.001798, x2 = 0.0003068	1.588
x1 = 0.001798, x2 = 0.0003234	1.591
x1 = 0.001798, x2 = 0.0003396	1.594
x1 = 0.001798, x2 = 0.0003558	1.597
x1 = 0.001798, x2 = 0.0003717	1.599
x1 = 0.001798, x2 = 0.0003855	1.602
x1 = 0.001798, x2 = 0.0004015	1.604
x1 = 0.001798, x2 = 0.000417	1.607
x1 = 0.001798, x2 = 0.000448	1.611
x1 = 0.001799, x2 = 0	1.541
x1 = 0.001799, x2 = 6.09e-06	1.538
x1 = 0.001799, x2 = 1.458e-05	1.538
x1 = 0.001799, x2 = 2.214e-05	1.539
x1 = 0.001799, x2 = 2.989e-05	1.54
x1 = 0.001799, x2 = 4.188e-05	1.542
x1 = 0.001799, x2 = 5.738e-05	1.543
x1 = 0.001799, x2 = 7.288e-05	1.544
x1 = 0.001799, x2 = 9.225e-05	1.547
x1 = 0.001799, x2 = 0.0001101	1.55
x1 = 0.001799, x2 = 0.0001291	1.554

[Cl-].[Li+] + CCCC[n+]1ccn(C)c1.N#C[S-] + CN1CCCC1=O
298.15 K, 101 kPa
Conditions	viscosity [mPa·s]
x2 = 0, x1 = 0.03819	2.63
x2 = 0, x1 = 0.07228	3.56
x2 = 0, x1 = 0.1042	4.958

O=C(O)CO + CC[N+](CC)(CC)CC.[Cl-]
101 kPa, x1 = 0.6667
Conditions	viscosity [mPa·s]
303.15 K	268
323.15 K	87
353.15 K	27
